{"source": "patent US9714941B2", "about": "“Bio-sensing nanodevice” (Massachusetts Institute of Technology, priority 2007, dated 2017)", "key": {"[1]": {"molecular_target": "T1, hOR17-4 (Homo sapiens, UniProt P34982)", "T1 sequence (P34982 1-312)": "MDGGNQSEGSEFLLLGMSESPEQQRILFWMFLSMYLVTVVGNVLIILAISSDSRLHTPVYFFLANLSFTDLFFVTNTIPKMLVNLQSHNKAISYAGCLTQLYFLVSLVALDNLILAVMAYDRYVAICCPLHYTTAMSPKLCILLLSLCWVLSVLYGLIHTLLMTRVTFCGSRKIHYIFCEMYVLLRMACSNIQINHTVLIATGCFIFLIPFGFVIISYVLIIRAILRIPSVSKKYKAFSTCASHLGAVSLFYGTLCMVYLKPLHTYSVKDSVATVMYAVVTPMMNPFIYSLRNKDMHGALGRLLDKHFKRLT", "conditions": "cited from earlier work"}, "[2]": {"test": "Odorant solubility in SPR running buffer, inferred from the binding response", "assay_type": "physicochemical", "description": "Fresh odorant lilial solutions were made as follows. Pure odorant was diluted in ethanol to 0.5 M. This solution was diluted 67 times in PBS, 0.1% CHAPS, 0.02% CHS, 0.1% DDM to obtain a 7.5 mM odorant solution in running buffer with 1% (v/v) ethanol. Further dilutions were made in running buffer containing 1% (v/v) ethanol to obtain a concentration series of 5 μM, 10 μM, 20 μM and 40 μM of odorant lilial.\nFor the actual binding measurements, the odorant concentration series were injected from low to high concentration over control and derivatized surfaces for 30 seconds with a flow rate of 60 μl/min. Zero concentration blank buffer cycles were included as negative control samples. Solvent correction procedures were included to compensate for any DMSO related bulk refractive index variations and performed as described previously^(34). Non-specific binding effects to sensor surface CM4 were absent for all analyses reported."}, "[3]": {"molecular_target": "T1, hOR17-4", "test": "Surface plasmon resonance (Biacore A100) odorant binding assay", "design": "made in house; host or cells: cell-free expression, wheat germ extract (Roche RTS); uncleaned lysate supernatant captured on the chip", "conditions": "SPR", "description": "All odorant binding experiments were performed on a Biacore™ A100 (GE Healthcare, Uppsala, Sweden) at 25° C. A Biacore™ A100 was used in the present studies since it has a parallel flow configuration thus allowing assay development e.g. solubilization conditions to be tested and optimized in parallel in a multiplexed format. The sensor chip CM4, amine coupling kit, HBS (10 mM Hepes, 0.15 M NaCl, pH 7.4) and PBS were from (GE Healthcare, Uppsala, Sweden).\nThe anti Rho-tag antibody 1D4 at 40 μg/ml in 10 mM sodium acetate pH 5.5 was immobilized onto a series S sensor chip using standard amine-coupling chemistry in HBS running buffer at 10 μl/min (33). The amount of coupled 1D4 was about 5500 RU. Control surfaces were prepared similarly without protein derivatization and utilized as a reference surfaces for compound binding experiments.\nCell-free lysate containing the expressed olfactory receptor was centrifuged for […] at 14000×g at 4° C., to remove larger particles. The supernatant, containing about 0.6 mg/ml olfactory receptor, was immediately captured on the surface plasmon resonance (SPR) chip using PBS, 0.1% CHAPS, 0.02% CHS, 0.1% DDM and 1% (v/v) ethanol as running buffer at 10 μl/min.\nFresh odorant lilial solutions were made as follows. […]"}}, "data": [{"smiles": "CC(C=O)Cc1ccc(C(C)(C)C)cc1", "note": "(stereo not drawn) [lilial]", "values": [{"measurement": "agonist activity at hOR17-4", "setting": "[1]; in vivo studies", "value": "known agonist"}, {"measurement": "affinity constant reported in vivo", "setting": "[1]; in vivo", "value": "micromolar range"}, {"measurement": "solubility at high concentrations", "setting": "[2]; SPR running buffer", "value": "very low"}, {"measurement": "concentration above which the response does not reach equilibrium (odorant starts to fall out of solution)", "setting": "[2]; running buffer PBS, 0.1% CHAPS, 0.02% CHS, 0.1% DDM, 1% (v/v) ethanol", "value": "above 10 μM"}, {"measurement": "dose response binding (RU)", "setting": "[3]; lilial 5-40 μM, 25° C., receptor from cell-free production captured via 1D4 antibody", "value": "binding response increases by increasing odorant concentration"}, {"measurement": "binding constant (approximately estimated)", "setting": "[3]; exact value could not be determined because of low solubility", "value": "within micromolar range"}]}]}
